This passage reports pIC50 results from the supplement of paper PMC12076712.

What all share (test): pIC50, kinobeads binding competition
For one assay, the target named is UniProt Q8NI60. In a few lines: (§1)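 Live Jurkat cells were treated with nine compound concentrations (top 30 μM, 1:4 steps) or DMSO for 60 min at 37 °C before lysis. Alternatively, Jurkat lysate or a 1:1:1:1 HEK293/K-562/HepG2/placenta lysate mix was incubated with nine concentrations (top 30 μM, 1:5 steps) for 60 min at 4 °C. Kinobeads-bound proteins were digested and quantified by TMT10 LC-MS/MS. pIC50 came from logistic dose-response fits (R drc package) of fold changes versus DMSO, in biological duplicates.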
Sequence of UniProt Q8NI60 (Q8NI60 whole entry, looked up): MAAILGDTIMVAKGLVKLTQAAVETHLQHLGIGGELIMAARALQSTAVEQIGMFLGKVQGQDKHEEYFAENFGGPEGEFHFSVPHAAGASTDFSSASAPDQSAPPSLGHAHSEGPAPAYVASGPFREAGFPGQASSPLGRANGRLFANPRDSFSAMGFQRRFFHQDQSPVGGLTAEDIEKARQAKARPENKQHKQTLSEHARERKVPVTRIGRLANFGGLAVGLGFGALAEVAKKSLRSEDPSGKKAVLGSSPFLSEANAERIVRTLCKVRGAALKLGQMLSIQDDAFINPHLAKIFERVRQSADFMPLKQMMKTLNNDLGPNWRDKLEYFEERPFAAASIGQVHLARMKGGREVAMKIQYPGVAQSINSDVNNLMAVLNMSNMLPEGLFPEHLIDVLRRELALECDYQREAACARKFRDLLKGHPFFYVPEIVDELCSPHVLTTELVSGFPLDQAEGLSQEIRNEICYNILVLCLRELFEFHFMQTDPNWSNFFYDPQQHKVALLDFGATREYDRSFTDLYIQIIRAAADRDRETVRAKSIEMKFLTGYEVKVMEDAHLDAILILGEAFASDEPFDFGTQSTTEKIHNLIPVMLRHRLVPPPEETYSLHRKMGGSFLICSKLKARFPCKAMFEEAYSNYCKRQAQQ

For another assay, the target named is T1, IRAK4 (UniProt Q9NWZ3).
T1 sequence (whole entry): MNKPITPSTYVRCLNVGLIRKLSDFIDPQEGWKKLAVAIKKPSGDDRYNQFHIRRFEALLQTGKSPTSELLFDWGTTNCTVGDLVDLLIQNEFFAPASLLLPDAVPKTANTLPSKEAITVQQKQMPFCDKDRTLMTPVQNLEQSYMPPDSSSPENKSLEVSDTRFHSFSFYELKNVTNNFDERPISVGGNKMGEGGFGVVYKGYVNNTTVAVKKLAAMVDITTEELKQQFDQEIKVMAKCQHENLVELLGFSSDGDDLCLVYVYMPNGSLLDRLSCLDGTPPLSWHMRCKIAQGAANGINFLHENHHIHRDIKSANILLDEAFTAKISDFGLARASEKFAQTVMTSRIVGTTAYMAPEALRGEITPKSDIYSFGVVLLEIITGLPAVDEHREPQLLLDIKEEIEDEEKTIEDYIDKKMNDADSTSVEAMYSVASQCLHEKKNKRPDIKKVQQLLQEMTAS
The method in brief: as §1

Another assay deals with Hck (UniProt P08631). The settings on record: cell material: Lysate mix. In a few lines:
as §1

The target in the next assay is UniProt P48729. In a few lines: as §1
Sequence of UniProt P48729 (P48729 whole entry, looked up): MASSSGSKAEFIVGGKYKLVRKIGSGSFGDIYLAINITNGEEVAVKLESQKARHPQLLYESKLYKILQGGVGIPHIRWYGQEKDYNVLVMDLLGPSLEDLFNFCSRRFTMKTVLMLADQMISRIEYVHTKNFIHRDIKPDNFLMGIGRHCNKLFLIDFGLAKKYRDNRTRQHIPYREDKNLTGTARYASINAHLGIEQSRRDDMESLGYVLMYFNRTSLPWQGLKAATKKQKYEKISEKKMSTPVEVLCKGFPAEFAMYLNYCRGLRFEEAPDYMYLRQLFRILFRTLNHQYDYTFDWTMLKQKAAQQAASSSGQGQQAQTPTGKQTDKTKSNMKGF
In another assay the target is T2, EPHB6 (UniProt O15197).
T2 sequence (whole entry): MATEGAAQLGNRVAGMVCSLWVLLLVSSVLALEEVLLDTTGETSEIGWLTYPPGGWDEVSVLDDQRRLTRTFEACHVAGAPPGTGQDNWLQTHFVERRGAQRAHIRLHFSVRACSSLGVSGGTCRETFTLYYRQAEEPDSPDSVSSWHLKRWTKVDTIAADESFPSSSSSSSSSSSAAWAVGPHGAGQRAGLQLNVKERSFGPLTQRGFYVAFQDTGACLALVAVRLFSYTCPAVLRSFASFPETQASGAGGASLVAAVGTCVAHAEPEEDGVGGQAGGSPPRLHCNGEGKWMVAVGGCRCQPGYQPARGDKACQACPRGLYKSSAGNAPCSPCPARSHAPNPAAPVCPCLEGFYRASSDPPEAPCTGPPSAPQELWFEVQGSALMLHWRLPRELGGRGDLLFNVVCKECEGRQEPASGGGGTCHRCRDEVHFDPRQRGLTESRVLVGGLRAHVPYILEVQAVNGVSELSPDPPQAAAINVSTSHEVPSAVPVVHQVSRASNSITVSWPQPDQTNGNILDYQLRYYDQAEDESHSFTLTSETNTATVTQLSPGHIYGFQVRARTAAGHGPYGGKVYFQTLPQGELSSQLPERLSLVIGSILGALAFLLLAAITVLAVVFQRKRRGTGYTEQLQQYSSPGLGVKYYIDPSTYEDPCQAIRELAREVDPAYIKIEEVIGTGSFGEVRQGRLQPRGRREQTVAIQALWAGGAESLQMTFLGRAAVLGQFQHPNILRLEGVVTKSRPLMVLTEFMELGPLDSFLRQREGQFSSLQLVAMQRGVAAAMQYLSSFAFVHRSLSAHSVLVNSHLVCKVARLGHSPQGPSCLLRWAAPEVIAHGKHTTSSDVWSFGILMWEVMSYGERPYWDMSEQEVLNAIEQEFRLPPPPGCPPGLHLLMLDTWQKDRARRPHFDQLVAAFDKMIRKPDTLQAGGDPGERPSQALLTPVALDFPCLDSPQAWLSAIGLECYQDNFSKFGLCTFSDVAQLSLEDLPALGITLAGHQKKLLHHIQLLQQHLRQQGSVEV
The method in brief: as §1

In a further assay the target is UniProt Q92918. The method in brief: as §1
Sequence of UniProt Q92918 (Q92918 whole entry, looked up): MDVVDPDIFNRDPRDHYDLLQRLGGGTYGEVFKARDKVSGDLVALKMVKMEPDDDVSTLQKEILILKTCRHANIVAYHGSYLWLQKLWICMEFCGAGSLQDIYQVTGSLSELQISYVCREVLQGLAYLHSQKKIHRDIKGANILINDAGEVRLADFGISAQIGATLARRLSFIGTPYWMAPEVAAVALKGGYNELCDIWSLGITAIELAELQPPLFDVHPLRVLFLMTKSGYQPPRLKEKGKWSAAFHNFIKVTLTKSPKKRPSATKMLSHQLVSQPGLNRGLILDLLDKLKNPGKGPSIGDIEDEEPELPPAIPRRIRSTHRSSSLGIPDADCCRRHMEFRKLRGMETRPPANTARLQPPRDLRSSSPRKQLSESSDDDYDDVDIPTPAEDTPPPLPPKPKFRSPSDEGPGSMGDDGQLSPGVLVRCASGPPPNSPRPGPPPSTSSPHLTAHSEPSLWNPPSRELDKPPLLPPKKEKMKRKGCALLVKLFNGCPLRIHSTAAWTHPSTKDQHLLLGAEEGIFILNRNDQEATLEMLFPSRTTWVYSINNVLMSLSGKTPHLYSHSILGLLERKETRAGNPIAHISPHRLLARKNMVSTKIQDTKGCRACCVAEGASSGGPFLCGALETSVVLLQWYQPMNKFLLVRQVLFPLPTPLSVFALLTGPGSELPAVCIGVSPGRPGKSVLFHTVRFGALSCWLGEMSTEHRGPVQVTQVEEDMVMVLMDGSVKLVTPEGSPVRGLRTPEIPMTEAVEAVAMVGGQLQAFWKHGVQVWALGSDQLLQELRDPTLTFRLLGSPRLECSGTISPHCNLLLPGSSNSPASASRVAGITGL
The next assay has as its target UniProt P27361. The method in brief:
as §1

In the next assay the target is LCK (UniProt P06239). In a few lines: as §1
A further assay deals with T3, PRKD3 (UniProt O94806).
T3 sequence (whole entry): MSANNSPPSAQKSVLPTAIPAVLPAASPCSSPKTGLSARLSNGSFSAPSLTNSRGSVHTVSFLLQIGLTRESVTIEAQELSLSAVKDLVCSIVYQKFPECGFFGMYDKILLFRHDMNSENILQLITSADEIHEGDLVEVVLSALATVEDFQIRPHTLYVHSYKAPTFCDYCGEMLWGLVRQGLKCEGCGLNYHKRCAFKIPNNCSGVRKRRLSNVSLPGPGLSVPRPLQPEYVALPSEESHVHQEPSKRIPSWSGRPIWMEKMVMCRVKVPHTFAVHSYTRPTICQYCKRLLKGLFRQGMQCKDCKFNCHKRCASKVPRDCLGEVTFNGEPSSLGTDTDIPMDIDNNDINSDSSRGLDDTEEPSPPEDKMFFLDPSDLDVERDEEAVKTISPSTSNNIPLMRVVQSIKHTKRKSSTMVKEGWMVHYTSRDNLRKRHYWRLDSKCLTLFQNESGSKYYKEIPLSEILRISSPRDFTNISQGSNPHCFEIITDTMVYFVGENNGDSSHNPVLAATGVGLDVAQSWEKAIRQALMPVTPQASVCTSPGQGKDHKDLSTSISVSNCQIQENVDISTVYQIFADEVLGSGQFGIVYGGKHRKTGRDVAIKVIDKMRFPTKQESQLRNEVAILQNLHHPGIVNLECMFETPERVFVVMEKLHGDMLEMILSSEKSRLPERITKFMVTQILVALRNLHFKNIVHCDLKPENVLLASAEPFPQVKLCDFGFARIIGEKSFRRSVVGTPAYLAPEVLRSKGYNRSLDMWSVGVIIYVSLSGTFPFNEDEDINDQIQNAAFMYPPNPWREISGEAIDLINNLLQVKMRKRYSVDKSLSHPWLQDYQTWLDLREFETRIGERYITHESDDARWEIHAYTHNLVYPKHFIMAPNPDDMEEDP
In a few lines:
as §1

A further assay concerns the target SRC (UniProt P12931). In a few lines: as §1
A further assay addresses ROCK1 (UniProt Q13464). In a few lines: as §1

SMILES strings stand for the structures. Bounds are passed on as bounds.

Sequence of SRC (P12931 whole entry, looked up): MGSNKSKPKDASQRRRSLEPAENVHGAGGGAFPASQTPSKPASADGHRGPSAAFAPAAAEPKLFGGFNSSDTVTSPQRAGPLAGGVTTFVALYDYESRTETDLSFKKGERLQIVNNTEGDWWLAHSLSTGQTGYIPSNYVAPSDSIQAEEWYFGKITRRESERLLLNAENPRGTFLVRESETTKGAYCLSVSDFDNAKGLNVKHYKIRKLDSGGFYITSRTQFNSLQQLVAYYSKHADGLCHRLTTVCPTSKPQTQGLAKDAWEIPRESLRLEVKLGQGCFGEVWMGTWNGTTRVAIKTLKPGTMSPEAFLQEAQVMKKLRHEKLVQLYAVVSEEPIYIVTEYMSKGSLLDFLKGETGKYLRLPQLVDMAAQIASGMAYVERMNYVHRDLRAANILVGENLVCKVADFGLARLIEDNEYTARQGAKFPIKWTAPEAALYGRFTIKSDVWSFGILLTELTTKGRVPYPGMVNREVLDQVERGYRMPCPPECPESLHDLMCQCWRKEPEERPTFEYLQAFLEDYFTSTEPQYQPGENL
Sequence of UniProt P27361 (P27361 whole entry): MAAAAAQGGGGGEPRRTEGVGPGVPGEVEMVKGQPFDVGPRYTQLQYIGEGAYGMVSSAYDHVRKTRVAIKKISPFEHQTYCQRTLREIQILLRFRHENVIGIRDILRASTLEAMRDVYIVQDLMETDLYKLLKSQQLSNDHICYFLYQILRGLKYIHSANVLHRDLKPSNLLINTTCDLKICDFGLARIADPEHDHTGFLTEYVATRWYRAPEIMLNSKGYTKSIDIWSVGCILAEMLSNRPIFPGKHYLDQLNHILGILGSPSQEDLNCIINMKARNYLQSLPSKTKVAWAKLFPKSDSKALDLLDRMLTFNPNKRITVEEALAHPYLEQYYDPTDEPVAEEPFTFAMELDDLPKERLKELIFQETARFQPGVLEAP
Sequence of Hck (P08631 whole entry, looked up): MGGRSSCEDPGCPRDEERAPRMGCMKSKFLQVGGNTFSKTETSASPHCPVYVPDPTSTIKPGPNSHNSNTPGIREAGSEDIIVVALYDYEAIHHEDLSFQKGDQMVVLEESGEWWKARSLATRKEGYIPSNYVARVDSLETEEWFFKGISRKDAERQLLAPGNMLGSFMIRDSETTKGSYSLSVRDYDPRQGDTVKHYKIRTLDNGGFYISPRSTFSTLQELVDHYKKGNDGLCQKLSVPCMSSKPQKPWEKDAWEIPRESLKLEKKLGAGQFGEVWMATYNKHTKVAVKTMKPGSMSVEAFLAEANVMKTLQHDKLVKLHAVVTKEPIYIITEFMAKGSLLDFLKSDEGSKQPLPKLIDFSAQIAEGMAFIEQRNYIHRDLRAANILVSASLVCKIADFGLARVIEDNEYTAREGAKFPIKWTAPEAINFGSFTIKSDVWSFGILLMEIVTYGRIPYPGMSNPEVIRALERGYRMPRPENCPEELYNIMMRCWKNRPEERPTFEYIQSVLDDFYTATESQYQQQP
Sequence of ROCK1 (Q13464 whole entry, looked up): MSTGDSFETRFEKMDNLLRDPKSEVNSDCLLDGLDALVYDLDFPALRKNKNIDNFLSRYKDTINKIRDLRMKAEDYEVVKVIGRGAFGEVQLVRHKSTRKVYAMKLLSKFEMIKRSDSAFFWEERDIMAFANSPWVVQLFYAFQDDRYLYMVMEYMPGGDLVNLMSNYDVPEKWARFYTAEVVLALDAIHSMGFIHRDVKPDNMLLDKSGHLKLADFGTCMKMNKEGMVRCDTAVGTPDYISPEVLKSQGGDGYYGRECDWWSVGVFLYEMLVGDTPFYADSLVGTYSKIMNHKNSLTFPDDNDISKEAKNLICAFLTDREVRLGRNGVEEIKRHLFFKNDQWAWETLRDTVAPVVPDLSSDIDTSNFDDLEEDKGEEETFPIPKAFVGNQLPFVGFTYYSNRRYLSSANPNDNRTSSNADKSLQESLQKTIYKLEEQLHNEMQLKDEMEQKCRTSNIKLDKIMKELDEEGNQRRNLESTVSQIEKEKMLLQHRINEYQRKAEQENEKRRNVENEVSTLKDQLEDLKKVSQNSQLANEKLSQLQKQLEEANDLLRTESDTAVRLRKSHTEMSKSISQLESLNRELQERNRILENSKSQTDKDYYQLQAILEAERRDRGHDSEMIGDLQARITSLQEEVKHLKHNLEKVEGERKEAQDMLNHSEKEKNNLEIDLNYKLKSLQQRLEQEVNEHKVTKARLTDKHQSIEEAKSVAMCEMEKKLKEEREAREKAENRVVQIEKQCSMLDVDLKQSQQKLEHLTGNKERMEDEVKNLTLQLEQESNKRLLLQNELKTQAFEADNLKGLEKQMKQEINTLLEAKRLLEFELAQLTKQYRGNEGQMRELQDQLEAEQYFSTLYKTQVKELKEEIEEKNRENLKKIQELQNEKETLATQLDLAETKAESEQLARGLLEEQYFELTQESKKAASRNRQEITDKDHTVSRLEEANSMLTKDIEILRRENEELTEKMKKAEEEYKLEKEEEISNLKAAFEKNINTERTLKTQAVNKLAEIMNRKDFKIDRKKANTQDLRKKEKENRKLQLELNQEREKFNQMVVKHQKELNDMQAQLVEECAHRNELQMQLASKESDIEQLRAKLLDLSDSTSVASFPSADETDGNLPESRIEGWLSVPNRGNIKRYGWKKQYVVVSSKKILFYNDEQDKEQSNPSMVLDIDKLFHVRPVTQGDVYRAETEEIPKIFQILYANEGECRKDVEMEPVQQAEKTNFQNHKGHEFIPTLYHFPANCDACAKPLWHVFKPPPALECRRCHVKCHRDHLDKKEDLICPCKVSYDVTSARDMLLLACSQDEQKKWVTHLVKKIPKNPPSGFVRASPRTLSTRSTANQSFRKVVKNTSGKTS

In general, pIC50 refers to the IC50 on a negative log10 scale, so that one unit is a factor of ten. Read a high pIC50 as a low IC50. Turning to `C#CCNC(=O)c1cc(Nc2cc(C)[nH]n2)nc(N2CCN(Cc3ccc(S(=O)(=O)F)cc3)CC2)n1`, the pIC50 at UniProt Q8NI60 (cell material: Lysate mix) is below 4.52; on IRAK4 (cell material: Lysate mix) it was below 4.52; on Hck it was 5.4; on UniProt P48729 (cell material: Lysate mix), below 4.52; at EPHB6 (cell material: Lysate mix), below 4.52; on UniProt Q92918 (cell material: Lysate mix), 4.77. For the same molecule, the negative logarithm of the IC50 (pIC50) at UniProt P27361 (cell material: Lysate mix) is below 4.52; at LCK (cell material: Lysate mix), 5.66; at PRKD3 (cell material: Lysate mix) it was below 4.52; on SRC (cell material: Lysate mix), 5.89; on ROCK1 (cell material: Lysate mix) it was below 4.52.
`O=C(NCCNC(=O)c1cc(Nc2cc(C3CC3)[nH]n2)nc(N2CCN(Cc3ccc(S(=O)(=O)F)cc3)CC2)n1)OC1CC/C=C/CCC1` (stereo not drawn): the pIC50 at UniProt Q8NI60 (cell material: Jurkat cells) is below 4.52; at UniProt Q8NI60 (cell material: Jurkat lysate) it was below 4.52; on UniProt Q8NI60 (cell material: Lysate mix), below 4.52; at IRAK4 (cell material: Jurkat cells), 5.24; on IRAK4 (cell material: Jurkat lysate) it was below 4.52; on IRAK4 (cell material: Lysate mix), below 4.52. Moreover, the negative logarithm of the IC50 (pIC50) on Hck is below 4.52; at UniProt P48729 (cell material: Jurkat lysate), below 4.52; on UniProt P48729 (cell material: Lysate mix) it was below 4.52; on EPHB6 (cell material: Jurkat cells), below 4.52; on EPHB6 (cell material: Jurkat lysate), below 4.52; on UniProt Q92918 (cell material: Jurkat cells), 5.32. The pIC50 is below 4.52 at UniProt Q92918 (cell material: Jurkat lysate); below 4.52 at UniProt Q92918 (cell material: Lysate mix); below 4.52 on UniProt P27361 (cell material: Jurkat lysate); below 4.52 at UniProt P27361 (cell material: Lysate mix); 5.67 at LCK (cell material: Jurkat cells); below 4.52 at LCK (cell material: Jurkat lysate). The negative logarithm of the IC50 (pIC50) at PRKD3 (cell material: Jurkat lysate) is below 4.52; at PRKD3 (cell material: Lysate mix) it was below 4.52; on SRC (cell material: Jurkat cells) it was 5.9; at SRC (cell material: Jurkat lysate) it was below 4.52; on ROCK1 (cell material: Jurkat cells) it was below 4.52; at ROCK1 (cell material: Jurkat lysate) it was below 4.52. Moreover, the pIC50 at ROCK1 (cell material: Lysate mix) is below 4.52.
Regarding `CCNC(=O)c1cc(Nc2cc(C3CC3)[nH]n2)nc(N2CCN(Cc3ccc(S(=O)(=O)F)cc3)CC2)n1`, the pIC50 was below 4.52 at UniProt Q8NI60 (cell material: Lysate mix); 5.19 at IRAK4 (cell material: Lysate mix); 5.8 at Hck; below 4.52 on UniProt P48729 (cell material: Lysate mix); below 4.52 on EPHB6 (cell material: Lysate mix); 5.8 at UniProt Q92918 (cell material: Lysate mix). The pIC50 was 4.94 on UniProt P27361 (cell material: Lysate mix); 5.89 at LCK (cell material: Lysate mix); below 4.52 on PRKD3 (cell material: Lysate mix); 6.14 at SRC (cell material: Lysate mix); below 4.52 on ROCK1 (cell material: Lysate mix).
For `Cc1cc(Nc2cc(C(=O)NCCNC(=O)OC3CC/C=C/CCC3)nc(N3CCN(Cc4ccc(S(=O)(=O)F)cc4)CC3)n2)n[nH]1` (stereo not drawn), the pIC50 at UniProt Q8NI60 (cell material: Lysate mix), at IRAK4 (cell material: Lysate mix), at Hck, at UniProt P48729 (cell material: Lysate mix), at EPHB6 (cell material: Lysate mix) and on UniProt Q92918 (cell material: Lysate mix) was below 4.52 throughout. Also, the pIC50 was below 4.52 on UniProt P27361 (cell material: Lysate mix); below 4.52 at LCK (cell material: Lysate mix); below 4.52 on PRKD3 (cell material: Lysate mix); 4.7 at SRC (cell material: Lysate mix); below 4.52 on ROCK1 (cell material: Lysate mix).
With `CCNC(=O)c1cc(Nc2cc(C)[nH]n2)nc(N2CCN(Cc3ccc(S(=O)(=O)F)cc3)CC2)n1`, the pIC50 was below 4.52 on UniProt Q8NI60 (cell material: Lysate mix); below 4.52 at IRAK4 (cell material: Lysate mix); 5.62 on Hck; below 4.52 on UniProt P48729 (cell material: Lysate mix); below 4.52 on EPHB6 (cell material: Lysate mix); 4.78 on UniProt Q92918 (cell material: Lysate mix). Also, the pIC50 on UniProt P27361 (cell material: Lysate mix) is below 4.52; at LCK (cell material: Lysate mix) it was 5.72; at PRKD3 (cell material: Lysate mix), below 4.52; at SRC (cell material: Lysate mix) it was 6.61; at ROCK1 (cell material: Lysate mix) it was below 4.52.
As for `C#CCNC(=O)c1cc(Nc2cc(C3CC3)[nH]n2)nc(N2CCN(Cc3ccc(S(=O)(=O)F)cc3)CC2)n1`, the negative logarithm of the IC50 (pIC50) at UniProt Q8NI60 (cell material: Jurkat cells) is below 4.52; at UniProt Q8NI60 (cell material: Jurkat lysate), below 4.52; on UniProt Q8NI60 (cell material: Lysate mix), below 4.52; at IRAK4 (cell material: Jurkat cells) it was 6.03; on IRAK4 (cell material: Jurkat lysate), 4.62; on IRAK4 (cell material: Lysate mix), 5.06. Also, the pIC50 on Hck was 5.86; on UniProt P48729 (cell material: Jurkat cells), 5.51; on UniProt P48729 (cell material: Jurkat lysate), below 4.52; at UniProt P48729 (cell material: Lysate mix), below 4.52; on EPHB6 (cell material: Jurkat cells), 5.28; at EPHB6 (cell material: Jurkat lysate), below 4.52. Besides, the negative-log IC50 (pIC50) on EPHB6 (cell material: Lysate mix) was below 4.52; on UniProt Q92918 (cell material: Jurkat cells) it was 5.88; at UniProt Q92918 (cell material: Jurkat lysate), 5.35; at UniProt Q92918 (cell material: Lysate mix), 5.9; on UniProt P27361 (cell material: Jurkat cells), 5.73; on UniProt P27361 (cell material: Jurkat lysate), below 4.52. Also, the pIC50 on LCK (cell material: Jurkat cells) was 6.47; at LCK (cell material: Jurkat lysate), 5.64; at LCK (cell material: Lysate mix) it was 6.07; on PRKD3 (cell material: Jurkat cells), 5.32; on PRKD3 (cell material: Jurkat lysate) it was below 4.52; at PRKD3 (cell material: Lysate mix), below 4.52. Further, the negative-log IC50 (pIC50) on SRC (cell material: Jurkat cells) was 6.41; on SRC (cell material: Jurkat lysate), 5.68; at SRC (cell material: Lysate mix), 6.24; at ROCK1 (cell material: Jurkat lysate) it was below 4.52; on ROCK1 (cell material: Lysate mix), below 4.52.
